Reference: patent US20260365682A1, “MODULATORS OF TNF-ALPHA ACTIVITY” (Forward Therapeutics, Inc., priority 2022, published 2026)

The compounds below were run against T1, TNF-α (Homo sapiens, UniProt P01375) (assay: TNF-α Induced HEK Blue Cellular Assay (secreted alkaline phosphatase expression, QUANTI-Blue)). Details: HEK Blue TNFα reporter cells; TNF-α 100 μg/ml; 24 hrs at 37° C.; inhibition of secreted alkaline phosphatase; read-out: IC50 value.
T1 construct: purchased R&D 210-TA-020/CF
Format: cell-based
Outline: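 HEK Blue TNFα reporter cells (10,000/well) in DMEM with 10% FBS received compound ([…] to 0.5 nM final) and TNF-α at […] final for 24 h at 37° C. Secreted alkaline phosphatase read with QUANTI-Blue at 620 nm. IC50 came from a 4-parameter logistic fit after normalising to unstimulated and stimulated DMSO controls.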

T1 sequence (P01375 77-233 limits assumed): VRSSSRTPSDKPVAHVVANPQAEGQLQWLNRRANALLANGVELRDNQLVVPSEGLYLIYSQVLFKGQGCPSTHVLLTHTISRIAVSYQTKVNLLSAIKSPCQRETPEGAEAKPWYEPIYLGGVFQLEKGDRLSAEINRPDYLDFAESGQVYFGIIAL

Q: Which IC50 does the source give for [2H]C([2H])([2H])N1C(=O)c2cccc(OC(F)F)c2[C@H]2C[C@@H]1c1nc3ccc(C#CC4CC4)c(F)c3n12 [Example 168, (7R,14R)-11-(cyclopropylethynyl)-1-(difluoromethoxy)-12-fluoro-6-(methyl-d3)-6,7-dihydro-7,14-methanobenzo[f]benzo[4,5]imidazo[1,2-a][1,4]diazocin-5(14H)-one] here?
A: The IC50 was 100 to 1000 nM.

Q: CN1C(=O)c2cccc(OC(F)F)c2[C@H]2C[C@@H]1c1nc3ccc(C#Cc4cncn4C)cc3n12 [Example 9, (1R,11R)-18-(difluoromethoxy)-12-methyl-5-[2-(3-methylimidazol-4-yl)ethynyl]-2,9,12-triazapentacyclo[9.8.1.0^{2,10}.0^{3,8}.0^{14,19}]icosa-3(8),4,6,9,14(19),15,17-heptaen-13-one] was tested. Which IC50 did it give?
A: Its IC50 is under 100 nM.

Q: For [2H]C([2H])([2H])N1C(=O)c2cccc(OC(F)F)c2[C@H]2C[C@@H]1c1nc3ccc(C#CCCN)cc3n12 [Example 123, (7R,14R)-11-(4-aminobut-1-yn-1-yl)-1-(difluoromethoxy)-6-(methyl-d3)-6,7-dihydro-7,14-methanobenzo[f]benzo[4,5]imidazo[1,2-a][1,4]diazocin-5(14H)-one], which IC50 is on record?
A: The IC50 was 100 to 1000 nM.

Q: With [2H]C([2H])([2H])N1C(=O)c2cccc(OC(F)F)c2[C@H]2C[C@@H]1c1nc3ccc(C#CCOC(F)F)cc3n12 [Example 131, (7R,14R)-1-(difluoromethoxy)-11-(3-(difluoromethoxy)prop-1-yn-1-yl)-6-(methyl-d3)-6,7-dihydro-7,14-methanobenzo[f]benzo[4,5]imidazo[1,2-a][1,4]diazocin-5(14H)-one] as the compound, how does the IC50 read?
A: Its IC50 is under 100 nM.

Q: How did the IC50 turn out when [2H]C([2H])([2H])N1C(=O)c2cccc(OC(F)F)c2[C@H]2C[C@@H]1c1nc3ccc(C#CC4CN(C(=O)C(C)(C)C)C4)cc3n12 [Example 125, (7R,14R)-1-(difluoromethoxy)-6-(methyl-d3)-11-((1-pivaloylazetidin-3-yl)ethynyl)-6,7-dihydro-7,14-methanobenzo[f]benzo[4,5]imidazo[1,2-a][1,4]diazocin-5(14H)-one] was run?
A: Its IC50 is under 100 nM.

Q: Which IC50 does the source give for [2H]C([2H])([2H])N1C(=O)c2cccc(OC(F)F)c2[C@H]2C[C@@H]1c1nc3ccc(C#CC(C)CCO)cc3n12 (single isomer, unassigned) [Example 239, (7R,14R)-1-(difluoromethoxy)-11-((S or R)-5-hydroxy-3-methylpent-1-yn-1-yl)-6-(methyl-d3)-6,7-dihydro-7,14-methanobenzo[f]benzo[4,5]imidazo[1,2-a][1,4]diazocin-5(14H)-one] here?
A: Its IC50 is under 100 nM.

Q: Which IC50 does the source give for [2H]C([2H])([2H])N1C(=O)c2cccc(OC(F)F)c2[C@H]2C[C@@H]1c1nc3ccc(C#CCCC(C)C)cc3n12 [Example 94, (7R,14R)-1-(difluoromethoxy)-6-(methyl-d3)-11-(5-methylhex-1-yn-1-yl)-6,7-dihydro-7,14-methanobenzo[f]benzo[4,5]imidazo[1,2-a][1,4]diazocin-5(14H)-one] here?
A: The IC50 was under 100 nM.

Q: With [2H]C([2H])([2H])N1C(=O)c2cccc(OC(F)F)c2[C@H]2C[C@@H]1c1nc3ccc(C#CC4CCN(C5COC5)C4)cc3n12 (stereo partly drawn) [Example 237, (7R,14R)-1-(difluoromethoxy)-6-(methyl-d3)-11-((1-(oxetan-3-yl)pyrrolidin-3-yl)ethynyl)-6,7-dihydro-7,14-methanobenzo[f]benzo[4,5]imidazo[1,2-a][1,4]diazocin-5(14H)-one] as the compound, how does the IC50 read?
A: Its IC50 is under 100 nM.

Q: With O=C1N[C@@H]2C[C@H](c3c(OC(F)F)cccc31)n1c2nc2ccc(C#Cc3cnn(CCO)c3)cc21 [Example 6, (1R,11R)-18-(difluoromethoxy)-5-{2-[1-(2-hydroxyethyl)pyrazol-4-yl]ethynyl}-2,9,12-triazapentacyclo[9.8.1.0^{2,10}.0^{3,8}.0^{14,19}]icosa-3(8),4,6,9,14(19),15,17-heptaen-13-one] as the compound, how does the IC50 read?
A: Its IC50 is under 100 nM.
